The values that follow are results of earlier work, collected in patent US20170135934A1, “Mouth Rinse for Prevention of Periodontal Disease” (priority 2015, published 2017).

Data set [1] concerns rat lymphocytes. The settings on record: glutamine added to the medium.
The test system of data set [2] is intestinal epithelial cell. The following applies: heat shock at 43 degrees C.; concentrations higher than 1 mM.
Data set [3] deals with biopsies from normal human ileum, proximal colon and rectosigmoid colon. The following applies: compared with saline.
The conditions of data set [4]: healthy volunteers; for urinary losses of dipeptides: continuous infusion; for side effects: continuous infusion of supplemented amino acid solution.
Data set [5] relates to intracellular glutamine pool. The settings on record: intravenous supply following cholecystectomy.
For data set [6] the following is noted: patients, TPN over 5 days.

Read-outs that look alike come from different tables or passages of the source. Residues, ends and D or L forms follow the SMILES beside them.

Take `NC(=O)CC[C@H](N)C(=O)O` [glutamine]: the “proliferation of rat lymphocytes (radioactive thymidine)” value in data set [1] is reported as “four-fold”. For the same compound, in data set [2], the “percentage of floating cells” value is given as “dose dependent decrease”. Further, the crypt cell proliferation result in data set [3] was “equally stimulated crypt cell proliferation”.

Regarding `C[C@H](N)C(=O)N[C@@H](CCC(N)=O)C(=O)O` [AlaGln, L-Alanyl-L-gutamine] (H-Ala-Gln-OH), in data set [4], the “urinary losses of dipeptides” value was “about 1 % of the given dose” and the side effects result is listed as “not accompanied by any side effects”. Further, the “intracellular glutamine pool preserved” value in data set [5] is 91 % of postoperative value. For the same compound, the crypt cell proliferation result in data set [3] was “equally stimulated crypt cell proliferation”. In data set [6], the peptide in plasma entry is “not detectable” and the side effects result is “free of any side effects”.

Take `NCC(=O)N[C@@H](CCC(N)=O)C(=O)O` [GlyGln, glycyl-L glutamine, reference compound] (H-Gly-Gln-OH): in data set [4], the “urinary losses of dipeptides” value is “about 1 % of the given dose” and the side effects result is listed as “not accompanied by any side effects”.
